Test results published in patent US20020035157A1, “Pharmaceutical compositions” (priority 1999, published 2002).
Like-named read-outs stand apart in the source and are kept apart here.

Tests used:
[1] = system: patients with osteoarthritis pain; experiment: Randomised, double blind, placebo controlled study in painful osteoarthritis: pain scores, analgesic consumption, desire to continue (Example 2); format: in vivo, human; conditions: for Reduction in pain score (VAS): after 42 days versus baseline pain score 4.2 (mean of days 1-4); for Reduction in pain score (VAS) compared to placebo: after 42 days, decrease beyond that given by cream vehicle alone; for percentage of patients who wished to continue with treatment: after six weeks; for Reduction in daily tablet consumption / Tablets per day after treatment: analgesic use; for Reduction in daily tablet consumption: from initial mean of 4 tablets daily; for Tablets per day after treatment: at beginning of treatment 4 tablets per day; for Mean Pain Score after 42 days (VAS): cream four times daily for six weeks to one painful joint, 0-10 VAS, baseline pain score 4.2; for Patients not wishing to continue / Patients wishing to continue: desire to continue with current treatment after six weeks
healthy individuals = conditions: 0.1 ml cream on 1 inch^2 of dorsum of non-dominant hand, single application, rated after 6 hours, 0-10 VAS, 40 volunteers
[2] = system: patients with osteoarthritis pain
patients = conditions: cited from earlier work

Row | Compound | Reduction in pain score (VAS) [1] [VAS] | Reduction in pain score (VAS) compared to placebo [1] [VAS] | percentage of patients who wished to continue with treatment [1] [%] | Reduction in daily tablet consumption [1] [tablets] | Reduction in daily tablet consumption ([1]; listed as capsaicin) [tablets] | Tablets per day after treatment [1] [tablets per day] | Mean Pain Score after 42 days (VAS) [1] [VAS] | Patients not wishing to continue [1] [patients] | Patients wishing to continue [1] [patients] | VAS: median (range), burning discomfort (healthy individuals) [VAS] | VAS: median (range), burning discomfort (healthy individuals; listed as C) | Application discomfort - Baseline scores versus treatment, VAS ([2]; regression estimate of baseline discomfort relative to the other groups, 10 cm VAS) [VAS] | patients who suffered burning after application (patients; 0.025% capsaicin, Watson and colleagues, Clinical Therapeutics 1993) | patients who suffered burning discomfort after application (patients; 0.075% capsaicin, The Capsaicin Study Group) | VAS: median (range), burning discomfort (healthy individuals; listed as D) | initial application discomfort ([2]; equal effect to placebo) | Application discomfort - changes resulting from baseline score, Coefficient ([2]; human, in vivo)
1 | COc1cc(CNC(=O)CCCC/C=C/C(C)C)ccc1O [Capsaicin, N-(4-hydroxy-3-methoxybenzyl)-8-methylnon-trans-6-enamide] | 0.5 | 0.28 | 24.4 | 0.28 | 0.28 | 3.72 | 3.70 | 29 | 11 | 3 | 3 (0-7) VAS | 2.1 | 9 of 33 | 87 of 138 |  |  | 
2 | O=[N+]([O-])OCC(CO[N+](=O)[O-])O[N+](=O)[O-] [GTN, Glyceryl trinitrate] | 0.59 | 0.37 | 27.5 |  |  | 3.52 | 3.61 | 34 | 11 | 0 |  |  |  |  | 0 (0-2) VAS | marginal initial discomfort | 0.33
